Literature values, collected in patent US20030144252A1, “Combination product comprising a non-steroidal antiandrogen and an egfr tyrosine kinase inhibitor” (priority 2000, published 2003).

Key:
[1] = test system: LNCaP prostate cancer cell line
androgen receptor = conditions: LNCaP prostate cancer cell line

block of HER2/neu protein induced activation of the androgen receptor (androgen receptor)	Structure (SMILES)	block of EGF induced cell growth [1]
	CC(O)(CS(=O)(=O)c1ccc(F)cc1)C(=O)Nc1ccc(C#N)c(C(F)(F)F)c1 (centres unmarked) [bicalutamide, 4′-cyano-3-(4-fluorophenylsulphonyl)-2-hydroxy-2-methyl-3′-(trifluoromethyl)propionanilide]	could partially block
could partially block	CC(C)(O)C(=O)Nc1ccc([N+](=O)[O-])c(C(F)(F)F)c1 [hydroxyflutamide]	
